Source: the supplement of paper PMC10307832

Assays:
[1] = compound: C1=CC2=C(C=C(C(=C2N=C1)O)N=NC3=CC4=C(C=C3)C=C(C=C4)S(=O)(=O)O)S(=O)(=O)O + Cc1nc(Nc2ncc(C(=O)Nc3c(C)cccc3Cl)s2)cc(N2CCN(CCO)CC2)n1 [Dasatinib] (partner 0.075 µM); experiment: relative viability (nuclei count vs DMSO), 5 days (fraction); higher = more cells survive
Procedure, shortened: (§1)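 A single step with final 0.05% Triton X-100, 1% formaldehyde and 1 ug/ml Hoechst fixed the cells and stained nuclei 5 days after treatment. Lung cancer cell lines in 1536-well plates had been treated by pin tool the day after seeding with one drug alone or a fixed anchor-drug dose plus five library-drug doses (not always all listed) in √10 steps, and nuclei were counted on 4× images. Relative viability is the ratio of nuclei in treated wells to nuclei in vehicle wells, taken as the median of duplicate plates.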

[2] = compound: C1=CC2=C(C=C(C(=C2N=C1)O)N=NC3=CC4=C(C=C3)C=C(C=C4)S(=O)(=O)O)S(=O)(=O)O + CCNC(=O)c1noc(-c2cc(C(C)C)c(O)cc2O)c1-c1ccc(CN2CCOCC2)cc1 [Luminespib] (partner 0.01 µM); experiment: as above
Procedure, shortened: as §1

Cell Line	relative viability ([1]; first compound 0.08 µM)	relative viability ([1]; first compound 0.253 µM)	relative viability ([1]; first compound 0.8 µM)	relative viability ([1]; first compound 2.53 µM)	relative viability ([1]; first compound 8 µM)	relative viability ([2]; first compound 0.08 µM)	relative viability ([2]; first compound 0.253 µM)	relative viability ([2]; first compound 0.8 µM)	relative viability ([2]; first compound 2.53 µM)	relative viability ([2]; first compound 8 µM)
COR-L23	0.523	0.477	0.442	0.582	0.576	0.748	0.581	0.64	0.726	0.738
COR-L 105	0.307	0.337	0.445	0.348	0.278	0.786	0.722	0.99	0.697	0.489
LK-2	0.357	0.33	0.204	0.33	0.239	0.156	0.292	0.181	0.231	0.179
201T	0.627	0.56	0.584	0.619	0.677	1.09	1.09	1.04	1.09	1.04
HCC-44	–	–	–	–	–	–	1.08	1.05	1.19	1.01
NCI-H596	0.651	0.685	0.554	0.727	0.703	1.16	1.09	1.05	1.11	0.832
H3255	0.346	0.375	0.297	0.34	0.477	0.838	0.876	0.864	0.855	0.78
NCI-H647	0.212	0.169	0.151	0.143	0.194	0.138	0.241	0.215	0.276	0.135
NCI-H2023	0.689	0.622	0.558	0.648	0.541	0.87	0.741	0.788	0.914	0.52
NCI-H23	0.922	0.877	0.702	0.95	0.927	0.202	0.21	–	0.194	0.209
NCI-H1944	0.222	0.244	0.201	0.212	0.206	0.826	0.696	0.802	0.741	0.721
NCI-H1793	0.372	0.403	0.364	0.367	0.372	0.22	0.189	0.184	0.264	0.16
NCI-H520	0.185	0.206	0.204	0.157	0.176	0.237	0.218	0.237	0.225	0.231
NCI-H460	0.515	0.536	0.492	0.489	0.522	0.0298	0.032	0.13	0.022	0.0231
EKVX	0.314	0.648	0.556	0.743	0.633	0.875	0.87	0.848	0.888	0.799
NCI-H358	0.149	0.183	0.153	0.184	0.168	0.342	0.382	0.307	0.309	0.214
EPLC-272H	0.408	0.313	0.333	0.366	0.418	0.264	0.385	0.388	0.283	0.383

Cell Line	relative viability ([1]; first compound 0.08 µM)	relative viability ([1]; first compound 0.253 µM)	relative viability ([1]; first compound 0.8 µM)	relative viability ([1]; first compound 2.53 µM)	relative viability ([1]; first compound 8 µM)	relative viability ([2]; first compound 0.08 µM)	relative viability ([2]; first compound 0.253 µM)	relative viability ([2]; first compound 0.8 µM)	relative viability ([2]; first compound 2.53 µM)	relative viability ([2]; first compound 8 µM)
NCI-H1563	0.455	0.478	0.492	0.397	0.418	0.514	0.522	0.489	0.498	0.404
NCI-H1395	0.386	0.433	0.45	0.397	0.43	0.851	0.859	0.806	0.701	0.786
NCI-H2126	0.711	0.645	0.64	0.713	0.693	0.898	0.899	0.89	1.04	0.86
LXF-289	0.196	0.215	0.205	0.208	0.229	0.788	0.645	0.73	0.681	0.642
NCI-H2009	0.261	0.275	0.288	0.313	0.283	1.08	0.995	1.04	1.14	0.623
NCI-H522	0.91	0.92	0.746	0.788	1.03	1.21	1.19	0.983	1.16	1.11
NCI-H2405	0.146	0.226	0.208	0.201	0.219	0.891	0.79	0.632	0.827	0.753
NCI-H1755	0.483	0.475	0.455	0.433	0.536	0.431	0.378	0.395	0.41	0.472
HCC-78	0.404	0.337	0.426	0.352	0.394	–	–	–	–	–
LOU-NH91	0.579	0.585	0.53	0.597	0.508	0.418	0.354	0.327	0.373	0.341
NCI-H3122	0.954	0.741	0.716	0.882	0.0807	0.0606	0.111	0.0925	0.0947	0.102
HCC-827	0.306	0.294	0.244	0.261	0.272	0.859	0.576	0.592	0.693	0.683
SK-LU-1	0.2	0.177	0.212	0.167	0.172	0.175	0.203	0.208	0.209	0.175
NCI-H1975	0.388	0.356	0.343	0.4	0.388	0.194	0.2	0.206	0.264	0.252
NCI-H1651	0.451	0.3	0.416	0.406	0.466	1.25	0.869	0.877	0.86	0.836
NCI-H441	0.574	0.587	0.568	0.59	0.679	0.454	0.323	0.428	0.363	0.278
LCLC-103H	0.537	0.461	0.505	0.458	0.48	1.09	0.902	1.09	0.96	0.957
